Test results taken from US20200171034A1, “Methods Of Treating Follicular Lymphoma” (Janssen Biotech, Inc., priority 2018, published 2020).

Tested on: relapsed/refractory (R/R) follicular lymphoma (FL)
Test: DAWN study (NCT01779791): phase 2, single-arm ibrutinib monotherapy
Format: in vivo, humans
Details: patients with R/R FL, ibrutinib 560 mg once daily
Source text: Detailed methodology for the DAWN trial is published in Gopal A K, et al. J Clin Oncol. 2018; 36:2405-2412. […] The primary end point was overall response rate (ORR=complete response [CR]+partial response [PR]), assessed by an independent review committee using the International Working Group Revised Response Criteria for Malignant Lymphoma.

Structure (SMILES): C=CC(=O)N1CCC[C@@H](n2nc(-c3ccc(Oc4ccccc4)cc3)c3c(N)ncnc32)C1 [ibrutinib, Ibrutinib]
- duration of response (median) in responders: 19.4 months
- overall response rate (ORR = complete response + partial response) (independent review committee, 95% CI 13.7-29.7): 20.9%
